In assay [1] the target is T1, VIPR2 (Homo sapiens, UniProt P41587).
T1 sequence (P41587 24-438): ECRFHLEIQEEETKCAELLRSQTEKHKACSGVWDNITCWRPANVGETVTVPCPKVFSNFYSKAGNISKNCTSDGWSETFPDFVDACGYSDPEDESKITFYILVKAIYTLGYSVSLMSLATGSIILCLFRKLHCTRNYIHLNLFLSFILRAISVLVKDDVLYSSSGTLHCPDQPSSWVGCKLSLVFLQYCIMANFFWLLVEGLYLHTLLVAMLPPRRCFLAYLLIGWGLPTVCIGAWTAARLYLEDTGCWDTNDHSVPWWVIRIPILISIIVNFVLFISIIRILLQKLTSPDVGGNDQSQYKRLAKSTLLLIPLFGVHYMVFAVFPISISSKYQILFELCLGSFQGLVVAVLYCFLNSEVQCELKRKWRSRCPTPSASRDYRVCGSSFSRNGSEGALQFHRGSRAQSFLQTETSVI
Kind of assay: BRET-based VIPR2 activation assay (CAMYEL cAMP sensor, CHO cells, VIP background). Type of assay: cell-based. Conditions: FIG. 1C, FIG. 5. An excerpt:
In such a system, a detector cell is used which expresses both the VIPR2 receptor and “CAMYEL,” a YFP-Epac-RLuc8 BRET sensor construct. This construct includes Epac1, a guanine nucleotide exchange factor activated by direct binding of cAMP, fused with an enhanced YFP and Renilla luciferase 8 (Rluc8) allowing BRET upon cAMP-induced conformational changes (Jiang et al., 2007, J Biol Chem. 282:10576-10584). In response to elevated cAMP levels, there is a conformational change in Epac and therefore a change in the proximity of the fused chromophores, Rluc8 and YFP, resulting in measurable energy transfer. Coexpression of this BRET construct with VIPR2, optionally tagged at the N-terminus with a signal peptide and FLAG epitope (SF-VIPR2), for example in HEK293 cells, allows for detection of a VIPR2-specific response to cAMP. BRET readout may be calculated by quantifying the ratio of the light emitted by the acceptor, YFP (λ=525 nm), over the emission from the donor, RLuc8 (λ=485 nm). The proximity of the donor and acceptor, and therefore the BRET ratio, decreases in the presence of cAMP. In non-limiting specific embodiments, a stable cell line may be generated for this assay using the Flp-In T-Rex system in HEK293 cells. This system allows site-specific single copy integration of the gene of interest and control of expression levels using the Tet-repressor site making receptor expression tetracycline-inducible. For example, a CAMYEL and VIPR2 expressing line may be induced with 0.01 μg/ml tetracycline, then, 24 hours later cells may be collected and distributed into 96-well plates. After treatment with candidate inhibitor compound, for example at 5, 1 and 0.5 μM concentrations, cells may be incubated with the light emitting luciferin, coelenterazine H, for 5 min and incubated for 5 min with VIP at increasing concentrations, for example ranging from […] to 10 μM. The fluorescence and luminescence may then be quantified, for example using a PHERAstar (BMG) plate reader. […] Alternatively, analogous experiments may be performed using human cells harvested from a patient having a VIPR2 copy number variation, for example (but not by way of limitation) pluripotent stem cells prepared from such a patient and then transfected with a CAMYEL construct.
Numerous cellular assays were developed that were able to detect VIP responses absent of interference from non-specific vasopressin receptors using this CHO based system. VIPR2 is a Gs coupled receptor. Activation of VIPR2 by VIP leads to both an elevation in cAMP signaling and the recruitment of β-arrestin. A variety of combinations can be transiently transfect into these CHO cells for the assessment of cellular responses to VIP. For the BRET readout CHO cell lines expressing an YFP-Epac-RLuc8 (CAMYEL) BRET sensor were used to detect changes in cAMP. This construct includes Epac1, a guanine nucleotide exchange factor activated by direct binding of cAMP, fused to an enhanced YFP and RLuc8 allowing a change in BRET upon cAMP-induced conformational changes. The key for medium to high throughput screening assays is the use of stable cell lines allowing the continuous assaying of multiple compounds with the ability to generate large numbers of cells for rapid use. In these lines VIPR2 was expressed as one of the stable cell lines assays. This was introduced into the CHO-Flp-IN to allow the generation of isogenic stable cell lines expressing high levels of VIPR2 under control of the CMV promoter. This has been introduced into this line together with the CAMYEL construct previously described. This allows for detection of VIPR2-specific responses to cAMP. EYFP fluorescence and RLuc8 luminescence is quantified in the presence of 5 μM light-emitting luciferin, coelenterazine H, using a PHERAstar (BMG) plate reader. BRET is calculated by quantifying the ratio of the light emitted by the acceptor, YFP (λ=525 nm), over the emission from the donor, RLuc8 (λ=485 nm).
3. […]

The target in assay [2] is T2, VPAC1 (Homo sapiens, UniProt P32241).
T2 sequence (P32241 31-457): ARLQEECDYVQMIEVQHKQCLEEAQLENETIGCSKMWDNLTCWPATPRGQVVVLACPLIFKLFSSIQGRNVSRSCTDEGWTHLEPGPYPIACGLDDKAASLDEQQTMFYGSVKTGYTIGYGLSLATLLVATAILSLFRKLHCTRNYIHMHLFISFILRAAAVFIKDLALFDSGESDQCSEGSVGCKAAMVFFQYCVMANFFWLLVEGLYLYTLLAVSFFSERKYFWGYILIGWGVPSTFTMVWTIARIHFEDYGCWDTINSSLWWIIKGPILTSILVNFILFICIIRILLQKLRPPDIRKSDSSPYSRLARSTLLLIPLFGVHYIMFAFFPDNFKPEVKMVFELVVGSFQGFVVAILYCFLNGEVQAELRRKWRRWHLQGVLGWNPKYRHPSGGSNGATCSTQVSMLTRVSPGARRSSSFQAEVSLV
As to conditions: Chu et al., 2010; cited from earlier work.

Assay [3] concerns the target T3, PAC1 (Homo sapiens, UniProt P41586).
T3 sequence (P41586 21-468): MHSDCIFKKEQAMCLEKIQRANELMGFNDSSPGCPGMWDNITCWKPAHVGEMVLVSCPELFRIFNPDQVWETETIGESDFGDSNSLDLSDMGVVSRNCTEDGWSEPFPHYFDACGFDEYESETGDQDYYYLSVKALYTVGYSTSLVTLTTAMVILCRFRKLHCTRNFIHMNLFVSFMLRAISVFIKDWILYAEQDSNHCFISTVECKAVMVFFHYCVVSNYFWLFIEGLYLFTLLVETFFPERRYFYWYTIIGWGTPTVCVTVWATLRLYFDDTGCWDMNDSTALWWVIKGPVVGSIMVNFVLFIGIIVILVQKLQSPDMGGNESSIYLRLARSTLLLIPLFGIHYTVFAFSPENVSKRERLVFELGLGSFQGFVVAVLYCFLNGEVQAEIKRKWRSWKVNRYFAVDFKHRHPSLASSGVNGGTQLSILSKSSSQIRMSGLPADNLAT
Conditions: Chu et al., 2010; cited from earlier work.

In the case of `O=C(N[C@H]1c2ccccc2C[C@H]1O)[C@H](Cc1ccccc1)C[C@H](O)CNS(=O)(=O)c1ccc([N+](=O)[O-])cc1` [Compound 1], the “VIPR2 inhibition in BRET-based assay (in words)” value in assay [1] was “rightward shift”. Besides, the “agonist or antagonist activities for VPAC1” value in assay [2] is “no detectable agonist or antagonist activities”. Also, the “agonist or antagonist activities for PAC1” value in assay [3] is listed as “no detectable agonist or antagonist activities”.

Values taken from patent US20150239831A1, “INHIBITORS OF CENTRAL NERVOUS SYSTEM VASOACTIVE INHIBITORY PEPTIDE RECEPTOR 2” (The Trustees Of Columbia University In The City Of New York, priority 2012, published 2015).
